Experiments:
SIK1 = SIK1 (Homo sapiens, UniProt P57059); assay: Additional kinase inhibition panel; format: biochemical
From the text: (§1) Supplement 41598_2024_59650_MOESM2_ESM.docx, table 4: Supplemental Table S4. IC50 of Narazaciclib against additional kinases | column: Narazaciclib (µM); Narazaciclib metabolite (µM)

FGFR3 = FGFR3 (Homo sapiens, UniProt P22607); assay: Additional kinase inhibition panel; format: biochemical
From the text: as §1

SIK3 = SIK3 (Homo sapiens, UniProt Q9Y2K2); assay: Additional kinase inhibition panel; format: biochemical
From the text: as §1

ABL-1 = ABL-1 (Homo sapiens, UniProt P00519); assay: Additional kinase inhibition panel; format: biochemical
From the text: as §1

FGFR2 = FGFR2 (Homo sapiens, UniProt P21802); assay: Additional kinase inhibition panel; format: biochemical
FGFR2, sequence (P21802 22-821): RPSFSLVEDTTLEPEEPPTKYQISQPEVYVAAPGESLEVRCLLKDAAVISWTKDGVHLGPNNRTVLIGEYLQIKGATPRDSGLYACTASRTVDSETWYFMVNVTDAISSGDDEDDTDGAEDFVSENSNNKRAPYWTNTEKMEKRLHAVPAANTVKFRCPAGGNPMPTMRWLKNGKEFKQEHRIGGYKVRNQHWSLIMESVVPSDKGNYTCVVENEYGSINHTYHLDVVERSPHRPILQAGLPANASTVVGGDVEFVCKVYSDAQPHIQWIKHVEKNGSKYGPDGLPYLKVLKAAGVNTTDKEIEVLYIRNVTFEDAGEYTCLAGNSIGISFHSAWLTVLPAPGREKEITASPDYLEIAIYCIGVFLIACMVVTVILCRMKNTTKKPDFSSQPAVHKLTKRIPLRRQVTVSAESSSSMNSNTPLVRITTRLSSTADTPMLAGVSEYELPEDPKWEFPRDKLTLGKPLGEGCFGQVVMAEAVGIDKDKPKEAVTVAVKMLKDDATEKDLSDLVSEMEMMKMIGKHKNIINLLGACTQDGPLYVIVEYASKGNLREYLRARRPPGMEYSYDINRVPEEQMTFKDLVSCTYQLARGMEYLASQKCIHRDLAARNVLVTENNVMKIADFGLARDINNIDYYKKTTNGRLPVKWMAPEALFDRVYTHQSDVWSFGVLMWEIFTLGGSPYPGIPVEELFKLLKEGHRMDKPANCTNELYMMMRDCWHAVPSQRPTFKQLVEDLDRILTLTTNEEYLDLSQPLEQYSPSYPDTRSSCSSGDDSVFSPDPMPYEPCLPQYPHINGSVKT
From the text: as §1

PDGFRα = PDGFRα (Homo sapiens, UniProt P16234); assay: Additional kinase inhibition panel; format: biochemical
From the text: as §1

RET = RET (Homo sapiens, UniProt P07949); assay: Additional kinase inhibition panel; format: biochemical
From the text: as §1

CDK9 = CDK9 (Homo sapiens, UniProt P50750); assay: Additional kinase inhibition panel; format: biochemical
From the text: as §1

FGFR4 = FGFR4 (Homo sapiens, UniProt P22455); assay: Additional kinase inhibition panel; format: biochemical
FGFR4, sequence (P22455 22-802): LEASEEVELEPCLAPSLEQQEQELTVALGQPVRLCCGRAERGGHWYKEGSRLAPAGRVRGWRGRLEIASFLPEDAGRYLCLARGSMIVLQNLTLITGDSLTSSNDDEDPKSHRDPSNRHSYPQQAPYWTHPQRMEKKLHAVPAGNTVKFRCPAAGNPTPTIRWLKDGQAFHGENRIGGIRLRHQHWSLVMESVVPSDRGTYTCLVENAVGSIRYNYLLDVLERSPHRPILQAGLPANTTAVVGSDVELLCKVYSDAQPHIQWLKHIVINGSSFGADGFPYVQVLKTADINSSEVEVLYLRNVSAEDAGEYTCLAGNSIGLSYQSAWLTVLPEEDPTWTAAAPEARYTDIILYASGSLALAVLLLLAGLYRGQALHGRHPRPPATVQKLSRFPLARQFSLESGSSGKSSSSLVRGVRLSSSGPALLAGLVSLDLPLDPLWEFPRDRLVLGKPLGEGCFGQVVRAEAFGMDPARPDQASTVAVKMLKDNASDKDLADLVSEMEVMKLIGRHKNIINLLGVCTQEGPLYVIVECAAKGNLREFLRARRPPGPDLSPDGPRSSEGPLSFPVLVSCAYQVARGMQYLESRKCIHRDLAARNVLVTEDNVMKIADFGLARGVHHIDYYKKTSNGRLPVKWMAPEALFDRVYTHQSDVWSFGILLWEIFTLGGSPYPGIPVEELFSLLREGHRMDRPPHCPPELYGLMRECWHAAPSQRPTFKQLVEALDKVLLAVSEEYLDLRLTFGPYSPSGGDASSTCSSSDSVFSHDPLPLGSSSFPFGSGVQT
From the text: as §1

SIK2 = SIK2 (Homo sapiens, UniProt Q9H0K1); assay: Additional kinase inhibition panel; format: biochemical
From the text: as §1

FGFR1 = FGFR1 (Homo sapiens, UniProt P11362); assay: Additional kinase inhibition panel; format: biochemical
From the text: as §1

C-Kit = C-Kit (Homo sapiens, UniProt P10721); assay: Additional kinase inhibition panel; format: biochemical
C-Kit, sequence (P10721 26-976): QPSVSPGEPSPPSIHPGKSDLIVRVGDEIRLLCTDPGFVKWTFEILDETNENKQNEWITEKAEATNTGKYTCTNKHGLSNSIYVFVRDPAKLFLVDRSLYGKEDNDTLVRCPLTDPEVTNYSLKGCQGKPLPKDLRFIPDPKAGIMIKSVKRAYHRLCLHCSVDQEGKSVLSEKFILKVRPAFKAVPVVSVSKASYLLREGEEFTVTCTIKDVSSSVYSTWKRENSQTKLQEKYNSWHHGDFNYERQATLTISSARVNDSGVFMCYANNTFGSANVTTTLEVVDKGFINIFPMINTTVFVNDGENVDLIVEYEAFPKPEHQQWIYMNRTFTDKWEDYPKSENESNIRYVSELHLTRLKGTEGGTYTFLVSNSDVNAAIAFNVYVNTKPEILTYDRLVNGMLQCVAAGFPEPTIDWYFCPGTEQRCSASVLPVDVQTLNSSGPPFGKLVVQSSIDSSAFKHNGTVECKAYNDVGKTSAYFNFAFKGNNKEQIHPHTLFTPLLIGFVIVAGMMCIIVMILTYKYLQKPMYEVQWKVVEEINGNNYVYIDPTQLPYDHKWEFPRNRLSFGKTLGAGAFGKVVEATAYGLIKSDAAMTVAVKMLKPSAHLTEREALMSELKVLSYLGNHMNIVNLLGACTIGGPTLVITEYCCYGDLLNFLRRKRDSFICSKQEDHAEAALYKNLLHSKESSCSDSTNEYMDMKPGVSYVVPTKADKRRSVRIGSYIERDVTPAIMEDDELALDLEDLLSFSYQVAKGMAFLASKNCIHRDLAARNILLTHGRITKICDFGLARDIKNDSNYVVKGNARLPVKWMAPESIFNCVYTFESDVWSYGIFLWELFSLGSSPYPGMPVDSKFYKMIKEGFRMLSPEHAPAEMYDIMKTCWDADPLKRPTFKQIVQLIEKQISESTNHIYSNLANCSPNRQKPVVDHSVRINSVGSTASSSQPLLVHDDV
From the text: as §1

PDGFRβ = PDGFRβ (Homo sapiens, UniProt P09619); assay: Additional kinase inhibition panel; format: biochemical
PDGFRβ, sequence (P09619 33-1106): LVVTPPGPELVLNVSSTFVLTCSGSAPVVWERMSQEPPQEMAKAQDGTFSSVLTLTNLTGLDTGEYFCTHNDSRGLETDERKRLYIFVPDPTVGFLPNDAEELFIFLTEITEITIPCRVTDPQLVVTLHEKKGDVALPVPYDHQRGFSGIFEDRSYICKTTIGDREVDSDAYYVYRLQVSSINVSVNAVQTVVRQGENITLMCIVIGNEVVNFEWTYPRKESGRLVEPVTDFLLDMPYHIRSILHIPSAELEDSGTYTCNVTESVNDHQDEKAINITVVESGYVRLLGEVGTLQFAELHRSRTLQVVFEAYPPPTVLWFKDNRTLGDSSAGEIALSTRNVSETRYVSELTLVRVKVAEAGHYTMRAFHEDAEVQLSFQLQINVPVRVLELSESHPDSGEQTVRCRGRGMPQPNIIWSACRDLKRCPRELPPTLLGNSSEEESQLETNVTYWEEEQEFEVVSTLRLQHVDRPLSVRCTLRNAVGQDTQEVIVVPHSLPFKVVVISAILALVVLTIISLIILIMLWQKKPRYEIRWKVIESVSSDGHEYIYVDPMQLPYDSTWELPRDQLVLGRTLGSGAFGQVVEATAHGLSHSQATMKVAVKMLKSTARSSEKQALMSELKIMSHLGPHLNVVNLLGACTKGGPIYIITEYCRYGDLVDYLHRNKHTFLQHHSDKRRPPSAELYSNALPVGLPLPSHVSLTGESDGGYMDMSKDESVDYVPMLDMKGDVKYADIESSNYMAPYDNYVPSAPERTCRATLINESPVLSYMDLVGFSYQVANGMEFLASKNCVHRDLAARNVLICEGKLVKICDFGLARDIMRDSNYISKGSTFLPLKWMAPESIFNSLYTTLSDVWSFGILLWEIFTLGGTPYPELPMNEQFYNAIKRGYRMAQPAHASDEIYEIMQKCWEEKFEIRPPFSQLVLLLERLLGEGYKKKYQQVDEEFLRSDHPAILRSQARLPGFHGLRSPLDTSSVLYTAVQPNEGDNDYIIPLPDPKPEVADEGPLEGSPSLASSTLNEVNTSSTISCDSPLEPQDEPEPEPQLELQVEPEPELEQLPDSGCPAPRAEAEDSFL
From the text: as §1

parental Ba/F3 line = assay: Parental Ba/F3 proliferation assay (CTG); format: cell-based; conditions: Mus musculus, BaF3
Method: (§2) The recombinant Ba/F3 cell lines overexpressing human CSF1R, or human RBM6-CSF1R, or human ETV6-CSF1R were generated using a retrovirus vector (Kyinno Co., Ltd. Beijing). The recombinant Ba/F3 lines overexpressing human Kras G12C orEGFR-L718Q mutants, and different mutant variants of FLT3 were also similarly created as well. A standard proliferation assay via CTG readout was performed according to the vendor’s instructions (KYinno Biotechnology Co., Ltd. Beijing).

AM8096 AML-PDX = assay: AM8096 systemic AML-PDX model; format: in vivo, NOD/scid mice
Method: For systemic AML-PDX models, the model establishment and narazaciclib pharmacology experiment were performed essentially as described previously. Briefly, 2 × 10^6 AM7407 cells, or 2 × 10^6 AM7577 cells, or 2 × 10^6 AM5512 cells, or 1.65 × 10^6 AM8096 cells were inoculated intravenously into 4- to 5-week-old female NOD/scid mice for AML development. Engraftment was confirmed by the presence of circulating human CD45+ cells (anti-human CD45 antibody, Cat. 304038, Biolegend) in peripheral blood. Mice with successful engraftment of AML-PDX were randomized into different treatment groups (N = 6) and received their designated treatments. Narazaciclib was administrated orally or intraperitoneally at 10 mg/kg, or 30 mg/kg, or 100 mg/kg every day throughout the study, while Cytarabine was administrated intraperitoneally at 3 mg/kg every day. Following the initiation of designated treatments, leukemic burden was monitored by flow cytometry with anti-human CD45 antibody on the peripheral blood every week as well as on the peripheral blood, bone marrow cells and splenocytes of mice at sacrifice. Mice were sacrifice once the followings are observed: body weight loss over 20%, reduced motility and activity, labored breathing, ruffled coat, hunched back and severe dehydration.

Ba/F3-FLT3-ITD (D835Y) = Ba/F3-FLT3-ITD (D835Y) proliferation assay; format: cell-based, mouse
Method: as §2

[1] = system: MV-4-11 subcutaneous xenograft; assay: MV-4-11 subcutaneous xenograft model; format: in vivo, NOD/scid mice; conditions: narazaciclib 100 mg/kg intraperitoneally twice per week for 3 weeks
From the text: The subcutaneous cell line xenograft (CDX) models and systemic patient-derived xenograft (PDX) models of AML have been extensively described before. For the subcutaneous MV-4-11 CDX model, 5 × 10^6 MV-4-11 tumor cells harvested from exponential growth phase were mixed with Matrigel (1:1) and then inoculated into the right front flank region of 6- to 7-week-old female NOD/scid mice for tumor development. MV-4-11 tumor-bearing mice were randomized into 5 groups (N = 8) when their tumor volume reached approximately 100 mm^3 and received their designated treatments following randomization. Narazaciclib was administrated intraperitoneally at 100 mg/kg twice per week for 3 weeks, while Azacitidine was administrated intraperitoneally at 3 mg/kg twice per week for 3 weeks. For the subcutaneous Ba/F3-ETV6-CSF1R CDX model, 1 × 10^6 Ba/F3-ETV6-CSF1R tumor cells harvested from exponential growth phase were mixed with Matrigel (1:1) and then inoculated into the right front flank region of 6- to 8-week-old female NOD/scid mice for tumor development. Ba/F3-ETV6-CSF1R tumor-bearing mice were randomized into 5 groups (N = 6) when their tumor volume reached approximately 100 mm^3 and received their designated treatments following randomization. […] Tumor volume and body weight were measured at different time points and tumor growth inhibition (TGI) was used as index to determine the therapeutic efficacy.

SIK1, sequence (P57059 whole entry): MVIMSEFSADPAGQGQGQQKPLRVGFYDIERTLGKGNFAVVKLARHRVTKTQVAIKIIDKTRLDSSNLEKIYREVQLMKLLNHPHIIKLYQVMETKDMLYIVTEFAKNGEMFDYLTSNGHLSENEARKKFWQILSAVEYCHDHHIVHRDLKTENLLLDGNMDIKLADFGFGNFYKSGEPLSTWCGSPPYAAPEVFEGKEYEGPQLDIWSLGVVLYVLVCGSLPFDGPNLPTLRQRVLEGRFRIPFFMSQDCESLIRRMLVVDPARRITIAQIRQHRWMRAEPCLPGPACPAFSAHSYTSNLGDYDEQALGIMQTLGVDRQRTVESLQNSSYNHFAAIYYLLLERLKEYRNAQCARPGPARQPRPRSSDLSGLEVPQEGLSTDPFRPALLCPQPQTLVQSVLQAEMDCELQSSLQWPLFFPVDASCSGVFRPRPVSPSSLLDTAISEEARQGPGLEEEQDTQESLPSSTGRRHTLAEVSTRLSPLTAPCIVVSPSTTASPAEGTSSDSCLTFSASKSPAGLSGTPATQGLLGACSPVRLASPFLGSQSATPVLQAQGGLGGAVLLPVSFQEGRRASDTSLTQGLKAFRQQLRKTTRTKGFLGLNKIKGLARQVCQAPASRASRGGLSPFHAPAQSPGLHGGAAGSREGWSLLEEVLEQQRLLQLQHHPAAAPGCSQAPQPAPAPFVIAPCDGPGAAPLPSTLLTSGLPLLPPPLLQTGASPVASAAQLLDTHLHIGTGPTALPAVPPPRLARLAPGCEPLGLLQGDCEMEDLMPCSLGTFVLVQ

- IC50 (SIK1): 0.034 µM
- IC50 (FGFR3): 0.187 µM
- IC50 (SIK3): 0.024 µM
- IC50 (ABL-1): 0.038 µM
- IC50 (FGFR2): 0.02 µM
- IC50 (PDGFRα): 0.104 µM
- IC50 (RET): 0.016 µM
- IC50 (CDK9): 0.028 µM
- IC50 (FGFR4): 2.74 µM
- IC50 (SIK2): 0.002 µM
- IC50 (FGFR1): 0.038 µM
- IC50 (C-Kit): 0.009 µM
- IC50 (PDGFRβ): 0.01 µM
- % of Ba/F3-FLT3 (IC50) (Ba/F3-FLT3-ITD (D835Y)): 20.19%
- IC50 (Ba/F3-FLT3-ITD (D835Y); Mus musculus): 0.0608 µM
SMILES: CN1CCN(c2ccc(Nc3ncc4cc(C#N)c(=O)n(C5CCCC5)c4n3)cc2)CC1 [Narazaciclib, narazaciclib]
- IC50 (parental Ba/F3 line): 1.35 µM
- leukemic load in peripheral blood, spleen and bone marrow (AM8096 AML-PDX; AM8096): reduce the leukemic load in peripheral blood and spleen, but also the leukemic load in bone marrow
- leukemic burdens, dose dependence (AM8096 AML-PDX; AM8096, different dose levels): reduced the leukemic burdens in a dose-dependent manner
- response of model (AM8096 AML-PDX; AM8096, narazaciclib 100 mg/kg intraperitoneally every day): responded completely
- anti-AML activity (tumor growth) [1]: significant anti-AML activity

Source: article PMC11031590, “Narazaciclib, a novel multi-kinase inhibitor with potent activity against CSF1R, FLT3 and CDK6, shows strong anti-AML activity in defined preclinical models” (Scientific Reports, 2024)
